Laboratory results as given in ChEMBL document CHEMBL1133342, “A convenient extension of the Wessely-Moser rearrangement for the synthesis of substituted alkylaminoflavones as neuroprotective agents in vitro” (Bioorg Med Chem Lett, 2000).

Tests used:
[1] = Maximum tolerated concentration in vitro against murine HT-22 hippocampal cell cultures by LDH assay; type: functional, Mus musculus, Hippocampus
[2] = Maximum tolerated concentration in vitro against murine HT-22 hippocampal cell cultures by MTT reduction assay; type: functional, Mus musculus, Hippocampus
[3] = Compound was tested in vitro for neuroprotective activity against L-homocysteic acid cytotoxicity in murine HT-22 hippocampal cell cultures by LDH assay; type: functional, Mus musculus, Hippocampus
[4] = Compound was tested in vitro for neuroprotective activity against L-homocysteic acid cytotoxicity in murine HT-22 hippocampal cell cultures by MTT reduction assay; type: functional, Mus musculus, Hippocampus
[5] = Compound was tested in vitro for intrinsic neurotoxicity against murine HT-22 hippocampal cell cultures by LDH assay; set-up: species or system Hippocampus; settings: mouse, HT-22 hippocampal cells; read-out: TC50 (the source's name)
[6] = Compound was tested in vitro for intrinsic neurotoxicity against murine HT-22 hippocampal cell cultures by MTT reduction assay; set-up: species or system Hippocampus; settings: mouse, HT-22 hippocampal cells; read-out: TC50 (the source's name)

Row | SMILES | MTC [1] [µM] | MTC [2] [µM] | PC50 [3] [µM] | PC50 [4] [µM] | CC50 [5] [µM] | CC50 [6] [µM]
1 | CC(C)CCNc1c(O)cc2oc(-c3ccccc3)cc(=O)c2c1O | 100 | 5 | 5.2 | 5.2 | 116 | 16
2 | C=CCNc1c(O)cc(O)c2c(=O)cc(-c3ccccc3)oc12 | 10 | 5 | >10 | >5 | 11 | 18
3 | CC(C)CNc1c(O)cc(O)c2c(=O)cc(-c3ccccc3)oc12 | 10 | 10 | 4.2 | 4.6 | 12 | 12
4 | CC(C)CCNc1c(O)cc(O)c2c(=O)cc(-c3ccccc3)oc12 | 10 | 10 | 5.5 | 5.3 | 16 | 12
5 | CCCNc1c(O)cc(O)c2c(=O)cc(-c3ccccc3)oc12 | 25 | 5 | 8 | 7 | 28 | 14
6 | CC(C)Nc1c(O)cc2oc(-c3ccccc3)cc(=O)c2c1O | 100 | 10 | 6.6 | 5.1 | 152 | 18
7 | CCCNc1c(O)cc2oc(-c3ccccc3)cc(=O)c2c1O | 100 | 5 | 5.5 | 5.2 | 176 | 10
